This passage reports IC50 results from patent US11919887B2, “Substituted tetrahydrofurans as modulators of sodium channels” (Vertex Pharmaceuticals Incorporated, priority 2019, dated 2024).

The target of the test is human Nav 1.8 (Homo sapiens, UniProt Q9Y5Y9). In words: E-VIPR assay detecting and measuring Nav inhibition (HEK cells expressing truncated human Nav 1.8). It counts as cell-based. A digest of the protocol:
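HEK cells expressing truncated human Nav1.8, transduced with KIR2.1 BacMam, were loaded with CC2-DMPE/DiSBAC6(3) FRET dyes and tested under electrical stimulation (E-VIPR). Compounds were run as 11-point 3-fold dilutions, top 300 nM final, 0.625% DMSO, with or without 25% human serum.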

[1] abbreviates: in the Presence of Human Serum in the E-VIPR Assay, read-out: IC50.
[2] abbreviates: in the Absence of Human Serum in the E-VIPR Assay, read-out: IC50.
Setting [3] is: in the Absence of Human Serum in the E-VIPR Assay.

Where two headings read alike, the source gives them in different places. Where only a bound is given, the exact number is not on record here.

Chain of human Nav 1.8 (Q9Y5Y9 whole entry, looked up, the tested form may be a part): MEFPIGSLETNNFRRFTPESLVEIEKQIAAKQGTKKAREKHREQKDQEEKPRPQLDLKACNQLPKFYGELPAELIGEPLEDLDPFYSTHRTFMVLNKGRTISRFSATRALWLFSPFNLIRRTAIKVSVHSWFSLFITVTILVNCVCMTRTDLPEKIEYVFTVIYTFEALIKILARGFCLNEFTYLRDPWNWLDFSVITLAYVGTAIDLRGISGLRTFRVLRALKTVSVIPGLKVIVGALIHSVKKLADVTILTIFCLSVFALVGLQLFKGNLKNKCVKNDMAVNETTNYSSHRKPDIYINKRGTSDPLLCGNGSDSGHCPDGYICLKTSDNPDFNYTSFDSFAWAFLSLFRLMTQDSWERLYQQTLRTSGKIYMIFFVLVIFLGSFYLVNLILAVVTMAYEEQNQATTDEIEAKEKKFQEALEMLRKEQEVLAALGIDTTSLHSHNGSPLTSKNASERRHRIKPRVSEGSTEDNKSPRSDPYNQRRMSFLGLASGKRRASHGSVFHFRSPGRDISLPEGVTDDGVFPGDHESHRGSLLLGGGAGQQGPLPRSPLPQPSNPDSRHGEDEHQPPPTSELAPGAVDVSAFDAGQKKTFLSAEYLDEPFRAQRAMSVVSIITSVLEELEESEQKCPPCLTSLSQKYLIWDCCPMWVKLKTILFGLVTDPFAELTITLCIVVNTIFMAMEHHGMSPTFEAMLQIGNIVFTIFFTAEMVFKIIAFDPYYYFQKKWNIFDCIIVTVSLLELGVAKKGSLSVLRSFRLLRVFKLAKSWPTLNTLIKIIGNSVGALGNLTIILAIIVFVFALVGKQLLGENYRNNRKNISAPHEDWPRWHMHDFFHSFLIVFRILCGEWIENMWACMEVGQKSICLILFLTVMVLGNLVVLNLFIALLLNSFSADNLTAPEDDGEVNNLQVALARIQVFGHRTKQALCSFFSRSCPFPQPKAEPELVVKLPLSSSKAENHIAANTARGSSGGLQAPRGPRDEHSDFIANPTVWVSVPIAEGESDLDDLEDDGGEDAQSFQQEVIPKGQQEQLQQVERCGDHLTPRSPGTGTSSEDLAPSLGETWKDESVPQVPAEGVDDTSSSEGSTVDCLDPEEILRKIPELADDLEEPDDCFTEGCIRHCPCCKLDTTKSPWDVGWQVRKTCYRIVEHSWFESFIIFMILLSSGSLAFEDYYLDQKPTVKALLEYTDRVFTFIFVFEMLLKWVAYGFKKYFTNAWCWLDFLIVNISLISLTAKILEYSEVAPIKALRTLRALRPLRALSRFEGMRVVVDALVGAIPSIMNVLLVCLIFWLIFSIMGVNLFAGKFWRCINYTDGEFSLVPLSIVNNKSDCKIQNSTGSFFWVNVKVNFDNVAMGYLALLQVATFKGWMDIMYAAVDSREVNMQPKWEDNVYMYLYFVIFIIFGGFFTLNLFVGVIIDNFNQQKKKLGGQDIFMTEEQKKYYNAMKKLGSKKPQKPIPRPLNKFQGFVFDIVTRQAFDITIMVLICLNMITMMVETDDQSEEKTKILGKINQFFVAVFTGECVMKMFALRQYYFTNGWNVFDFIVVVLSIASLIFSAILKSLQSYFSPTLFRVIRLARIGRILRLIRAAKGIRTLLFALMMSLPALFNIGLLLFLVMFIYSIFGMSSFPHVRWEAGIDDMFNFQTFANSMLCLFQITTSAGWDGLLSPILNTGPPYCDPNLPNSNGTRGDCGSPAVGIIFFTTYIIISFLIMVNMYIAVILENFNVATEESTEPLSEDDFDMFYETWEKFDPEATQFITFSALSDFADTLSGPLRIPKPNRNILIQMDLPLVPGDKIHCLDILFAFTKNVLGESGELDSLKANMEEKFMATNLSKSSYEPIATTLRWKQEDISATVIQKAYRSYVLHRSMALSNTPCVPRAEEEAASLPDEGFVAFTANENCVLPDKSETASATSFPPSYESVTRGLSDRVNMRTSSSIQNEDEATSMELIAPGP

Usually IC50 stands for the concentration that gives 50% inhibition. For the compound `COc1c([C@@H]2C[C@](C)(C(F)(F)F)O[C@H]2C(=O)Nc2ccnc(C(N)=O)c2)ccc(F)c1F` (stereo in doubt) [Compound 5, rel-(2R,3S,5R)-4-[[3-(3,4-difluoro-2-methoxy-phenyl)-5-methyl-5-(trifluoromethyl)tetrahydrofuran-2-carbonyl]amino]pyridine-2-carboxamide], the IC50 under setting [1] was in the range of 0.01 to 0.1 µM.

`COc1cc(F)ccc1[C@@H]1[C@@H](C)[C@](C)(C(F)(F)F)O[C@H]1C(=O)Nc1ccnc(C(N)=O)c1` (single isomer, unassigned) [Compound 39]: the IC50 under setting [1] fell in the range of 0.1 to 1 µM.

For the compound `COc1c([C@@H]2[C@@H](C(=O)Nc3ccnc(C(N)=O)c3)O[C@](C)(C(F)(F)F)[C@@H]2C)cccc1C(F)(F)F` (single isomer, unassigned) [compound 43], the IC50 under setting [2] fell in the range of 0.1 to 1 µM.

Take `COc1cc(F)ccc1[C@@H]1[C@@H](C(=O)Nc2ccnc(C(N)=O)c2)O[C@](C)(C(F)(F)F)[C@H]1C` (single isomer, unassigned) [Compound 38]: the half-inhibitory concentration (IC50) under setting [1] was more than 1 µM.

As to `COc1c([C@@H]2C[C@H](C(F)(F)F)O[C@H]2C(=O)Nc2ccnc(C(N)=O)c2)ccc(F)c1F` (stereo in doubt) [Compound 110, rel-(2R,3S,5R)-4-[[3-(3,4-difluoro-2-methoxy-phenyl)-5-(trifluoromethyl)tetrahydrofuran-2-carbonyl]amino]pyridine-2-carboxamide], under setting [1], the IC50 was 0.1 to 1 µM.

With `COc1c([C@@H]2[C@@H](C)[C@](C)(C(F)(F)F)O[C@H]2C(=O)Nc2ccnc(C(N)=O)c2)ccc(F)c1F` [Compound 50, 4-[[(2R,3S,4R,5R)-3-(3,4-difluoro-2-methoxy-phenyl)-4,5-dimethyl-5-(trifluoromethyl)tetrahydrofuran-2-carbonyl]amino]pyridine-2-carboxamide], the IC50 under setting [3] was in the range of 0.01 to 0.1 µM.

In the case of `C[C@H]1[C@@H](c2ccc(F)c(F)c2OC(F)F)[C@H](C(=O)Nc2ccc(F)c(C(N)=O)c2)O[C@@]1(C)C(F)(F)F` (single isomer, unassigned) [Compound 14], under setting [1], the IC50 is more than 1 µM.

The compound `[2H]c1c(NC(=O)[C@@H]2O[C@@](C)(C(F)(F)F)[C@@H](C)[C@H]2c2ccc(F)c(F)c2OC)ccnc1C(N)=O` [Compound 129, 3-deuterio-4-[[(2R,3S,4S,5R)-3-(3,4-difluoro-2-methoxy-phenyl)-4,5-dimethyl-5-(trifluoromethyl)tetrahydrofuran-2-carbonyl]amino]pyridine-2-carboxamide] showed a 50% inhibitory concentration (IC50) under setting [3] of less than 0.01 µM.

For the compound `COc1c([C@@H]2C[C@@](C)(CC(F)(F)F)O[C@H]2C(=O)Nc2ccnc(C(N)=O)c2)ccc(F)c1F` (single isomer, unassigned) [Compound 80], under setting [1], the half-inhibitory concentration (IC50) is more than 1 µM.

Turning to `COc1c([C@@H]2C[C@](C)(C(F)(F)F)O[C@H]2C(=O)Nc2ccc(F)c(C(N)=O)c2)ccc(F)c1F` (single isomer, unassigned) [Compound 47], the IC50 under setting [1] was 0.01 to 0.1 µM.

As for `C[C@H]1[C@@H](c2ccc(F)c(F)c2)[C@H](C(=O)Nc2ccnc(C(N)=O)c2)O[C@@]1(C)C(F)(F)F` (single isomer, unassigned) [Compound 91], the half-inhibitory concentration (IC50) under setting [1] lay within 0.1 to 1 µM.

For the compound `COc1c([C@@H]2C[C@](C)(C(F)(F)F)O[C@H]2C(=O)Nc2ccnc(C(N)=O)c2)ccc(F)c1C` (single isomer, unassigned) [Compound 72], the IC50 under setting [1] was in the range of 0.01 to 0.1 µM.

Turning to `COc1c([C@H]2[C@H](C(=O)Nc3ccnc(C(N)=O)c3F)O[C@@](C)(C(F)(F)F)[C@H]2C)ccc(F)c1F` [Compound 126, 4-[[(2R,3S,4S,5R)-3-(3,4-difluoro-2-methoxy-phenyl)-4,5-dimethyl-5-(trifluoromethyl)tetrahydrofuran-2-carbonyl]amino]-3-fluoro-pyridine-2-carboxamide], under setting [2], the IC50 was less than 0.01 µM.

For `COc1cc(F)ccc1[C@@H]1[C@@H](C(=O)Nc2ccnc(C(N)=O)c2)O[C@@](C)(C(F)(F)F)[C@@H]1C` (single isomer, unassigned) [Compound 41], the IC50 under setting [1] was in the range of 0.01 to 0.1 µM.

Take `CNC(=O)c1cc(NC(=O)[C@@H]2O[C@@](C)(C(F)(F)F)C[C@H]2c2ccc(F)c(Cl)c2OC)ccn1` (single isomer, unassigned) [Compound 60]: the IC50 under setting [1] lay in the range of 0.01 to 0.1 µM.

For `CC[C@]1(C(F)(F)F)C[C@@H](c2ccc(F)c(F)c2OC)[C@H](C(=O)Nc2ccnc(C(N)=O)c2)O1` (stereo in doubt) [Compound 64, rel-(2R,3S,5R)-4-[[3-(3,4-difluoro-2-methoxy-phenyl)-5-ethyl-5-(trifluoromethyl)tetrahydrofuran-2-carbonyl]amino]pyridine-2-carboxamide], under setting [1], the IC50 is 0.01 to 0.1 µM.

With `C[C@@H]1[C@H](c2ccc(F)cc2OC(F)F)[C@@H](C(=O)Nc2ccnc(C(N)=O)c2)O[C@@]1(C)C(F)(F)F` (racemic) [compound 28], the half-inhibitory concentration (IC50) under setting [1] was in the range of 0.01 to 0.1 µM.

With `COc1c([C@H]2C[C@@](C)(C(C)(F)F)O[C@@H]2C(=O)Nc2ccnc(C(N)=O)c2)ccc(F)c1F` (single isomer, unassigned) [Compound 85], the IC50 under setting [1] was more than 1 µM.

On to `COc1c([C@H]2[C@H](C(=O)Nc3ccnc(C(N)=O)c3)O[C@@](C)(C(F)(F)F)[C@H]2C)ccc(C(F)F)c1F` (single isomer, unassigned) [Compound 136], for which the half-inhibitory concentration (IC50) under setting [2] is less than 0.01 µM.

For the compound `COc1c([C@@H]2[C@@H](C)[C@](C)(C(F)(F)F)O[C@H]2C(=O)Nc2ccnc(C(N)=O)c2)ccc(F)c1F` (racemic) [Compound 35, rac-(2R,3S,4R,5R)-4-[[3-(3,4-difluoro-2-methoxy-phenyl)-4,5-dimethyl-5-(trifluoromethyl)tetrahydrofuran-2-carbonyl]amino]pyridine-2-carboxamide], the concentration for half-maximal inhibition (IC50) (in the Presence of Human Serum in the E-VIPR Assay) was 0.1 to 1 µM.

`Cc1c([C@@H]2[C@@H](C(=O)Nc3ccnc(C(N)=O)c3)O[C@](C)(C(F)(F)F)[C@@H]2C)ccc(F)c1F` (stereo in doubt) [Compound 131, rel-(2S,3R,4R,5S)-4-[[3-(3,4-difluoro-2-methyl-phenyl)-4,5-dimethyl-5-(trifluoromethyl)tetrahydrofuran-2-carbonyl]amino]pyridine-2-carboxamide]: the concentration for half-maximal inhibition (IC50) under setting [2] was more than 1 µM.
